Test results from patent US8952024B2, “Herbicidal pyrimidone derivatives” (E I du Pont de Nemours and Company, priority 2009, dated 2015).

Tests used:
Type in all cases: in vivo
[1] = test system: Italian ryegrass (Lolium multiflorum); experiment: Test B pre-/postemergence plant response
Description: (§1) Seeds of plant species selected from blackgrass (Alopecurus myosuroides), downy bromegrass (Bromus tectorum), green foxtail (Setaria viridis), Italian ryegrass (Lolium multiflorum), wheat (Triticum aestivum), wild oat (Avena fatua), deadnettle (henbit deadnettle, Lamium amplexicaule), galium (catchweed bedstraw, Galium aparine), bermudagrass (Cynodon dactylon), Surinam grass (Brachiaria decumbens), cocklebur (Xanthium strumarium), corn (Zea mays), large crabgrass (Digitaria sanguinalis), woolly cupgrass (Eriochloa villosa), giant foxtail (Setaria faberii), goosegrass (Eleusine indica), johnsongrass (Sorghum halepense), kochia (Kochia scoparia), lambsquarters (Chenopodium album), morningglory (Ipomoea coccinea), nightshade (eastern black nightshade, Solanum ptycanthum), yellow nutsedge (Cyperus esculentus), pigweed (Amaranthus retroflexus), ragweed (common ragweed, Ambrosia elatior), Russian thistle (Salsola kali), soybean (Glycine max), sunflower (common oilseed sunflower, Helianthus annuus) and velvetleaf (Abutilon theophrasti) were planted into a blend of loam soil and sand and treated preemergence with test compounds formulated in a non-phytotoxic solvent mixture which included a surfactant.
(§2) At the same time, plants selected from these crop and weed species and also winter barley (Hordeum vulgare), canarygrass (Phalaris minor), chickweed (Stellaria media) and windgrass (Apera spica-venti) were planted in pots containing Redi-Earth® planting medium (Scotts Company, 14111 Scottslawn Road, Marysville, Ohio 43041) comprising spaghnum peat moss, vermiculite, wetting agent and starter nutrients and treated with postemergence applications of some of the test chemicals formulated in the same manner. Plants ranged in height from 2 to 18 cm (1- to 4-leaf stage) for postemergence treatments.
(§3) Treated plants and controls were maintained in a greenhouse for 13 to 15 days, after which time all treated plants were visually evaluated and compared to controls. Plant response ratings, summarized in Table B, are based on a scale of 0 to 100 where 0 is no effect and 100 is complete control. A dash (-) response means no test result.

[2] = test system: Surinam grass (Brachiaria decumbens); experiment: Test B pre-/postemergence plant response
Description: as §1, §2, §3

[3] = test system: blackgrass (Alopecurus myosuroides); experiment: Test B pre-/postemergence plant response
Description: as §1, §2, §3

[4] = test system: cocklebur (Xanthium strumarium); experiment: Test B pre-/postemergence plant response
Description: as §1, §2, §3

corn (Zea mays) = experiment: Test B pre-/postemergence plant response
Description: as §1, §2, §3

[5] = test system: downy bromegrass (Bromus tectorum); experiment: Test B pre-/postemergence plant response
Description: as §1, §2, §3

[6] = test system: giant foxtail (Setaria faberii); experiment: Test B pre-/postemergence plant response
Description: as §1, §2, §3

[7] = test system: morningglory (Ipomoea coccinea); experiment: Test B pre-/postemergence plant response
Description: as §1, §2, §3

[8] = test system: pigweed (Amaranthus retroflexus); experiment: Test B pre-/postemergence plant response
Description: as §1, §2, §3

wild oat (Avena fatua) = experiment: Test B pre-/postemergence plant response
Description: as §1, §2, §3

[9] = test system: canarygrass (Phalaris minor); experiment: Test B postemergence plant response
Procedure, shortened: (§4)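 Plants at the 1- to 4-leaf stage (2 to 18 cm tall), grown in pots of peat moss/vermiculite medium with wetting agent and starter nutrients, received postemergence applications of test chemicals. After 13 to 15 days in a greenhouse, injury was rated visually against untreated controls on a 0 (no effect) to 100 (complete control) scale.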

[10] = test system: chickweed (Stellaria media); experiment: Test B postemergence plant response
Procedure, shortened: as §4

[11] = test system: windgrass (Apera spica-venti); experiment: Test B postemergence plant response
Procedure, shortened: as §4

[12] = 31 g ai/ha, postemergence, scale 0 to 100, 0 is no effect, 100 is complete control
[13] = 62 g ai/ha, postemergence, 0 is no effect, 100 is complete control, 13 to 15 days
[14] = Postemergence, 250 g ai/ha, scale 0 to 100 (0 no effect, 100 complete control)
[15] = Postemergence, 125 g ai/ha, visual rating after 13 to 15 days, scale 0 (no effect) to 100 (complete control)
[16] = Postemergence, 31 g ai/ha, 0 to 100 scale (0 no effect, 100 complete control)
[17] = Postemergence, 62 g ai/ha, scale 0 to 100 (0 no effect, 100 complete control)
[18] = Postemergence, 250 g ai/ha, scale 0 to 100 (0 no effect, 100 complete control), 13 to 15 days
[19] = Postemergence, 125 g ai/ha, scale 0 to 100 (0 no effect, 100 complete control)

SMILES: CC(C)CC(=O)OC1=C(C(=O)c2cnc(-c3ccccc3)n(-c3ccccc3)c2=O)C(=O)CCC1 [Compound 83]
- Plant response rating, Ryegrass, Italian [1, 12]: 0
- Ryegrass, Italian plant response rating (0 to 100 scale) [1, 13]: 0
- Plant response rating, Ryegrass, Italian [1, 14]: 5
- Plant response rating, Surinam Grass [2, 12]: 75
- Surinam Grass plant response rating (0 to 100 scale) [2, 13]: 75
- Plant response rating, Surinam Grass [2, 14]: 90
- Plant response rating, Blackgrass [3, 12]: 0
- Blackgrass plant response rating (0 to 100 scale) [3, 13]: 0
- Plant response rating, Blackgrass [3, 15]: 0
- Plant response rating, Blackgrass [3, 14]: 0
- Plant response rating, Cocklebur [4, 12]: 75
- Cocklebur plant response rating (0 to 100 scale) [4, 13]: 80
- Plant response rating, Cocklebur [4, 15]: 80
- Plant response rating, Cocklebur [4, 14]: 90
- Plant response rating, Corn (corn (Zea mays); [12]): 0
- Corn plant response rating (0 to 100 scale) (corn (Zea mays); [13]): 5
- Plant response rating, Corn (corn (Zea mays); [15]): 15
- Plant response rating, Corn (corn (Zea mays); [14]): 25
- Plant response rating, Bromegrass, Downy [5, 12]: 40
- Bromegrass, Downy plant response rating (0 to 100 scale) [5, 13]: 45
- Plant response rating, Bromegrass, Downy [5, 15]: 45
- Plant response rating, Bromegrass, Downy [5, 14]: 60
- Plant response rating, Foxtail, Giant [6, 12]: 80
- Foxtail, Giant plant response rating (0 to 100 scale) [6, 13]: 95
- Plant response rating, Foxtail, Giant [6, 14]: 98
- Plant response rating, Morningglory [7, 12]: 70
- Morningglory plant response rating (0 to 100 scale) [7, 13]: 75
- Plant response rating, Morningglory [7, 14]: 100
- Plant response rating, Pigweed [8, 12]: 80
- Pigweed plant response rating (0 to 100 scale) [8, 13]: 90
- Plant response rating, Pigweed [8, 14]: 100
- Plant response rating, Oat, Wild (wild oat (Avena fatua); [12]): 10
- Oat, Wild plant response rating (0 to 100 scale) (wild oat (Avena fatua); [13]): 10
- Plant response rating, Oat, Wild (wild oat (Avena fatua); [14]): 10
- Plant response rating, Canarygrass [9, 12]: 20
- Canarygrass plant response rating (0 to 100 scale) [9, 13]: 20
- Plant response rating, Canarygrass [9, 15]: 25
- Plant response rating, Canarygrass [9, 14]: 25
- Plant response rating, Chickweed [10, 12]: 90
- Chickweed plant response rating (0 to 100 scale) [10, 13]: 90
- Plant response rating, Chickweed [10, 15]: 98
- Plant response rating, Chickweed [10, 14]: 100
- Plant response rating, Windgrass [11, 12]: 5
- Windgrass plant response rating (0 to 100 scale) [11, 13]: 10
- Plant response rating, Windgrass [11, 14]: 30

SMILES: CCCn1c(-c2ccsc2)ncc(C(=O)C2=C(O)C3CCC(C3)C2=O)c1=O (centres unmarked) [Compound 227]
- Plant response rating, Ryegrass, Italian [1, 16]: 0
- Plant response rating, Ryegrass, Italian [1, 17]: 0
- Plant response rating, Ryegrass, Italian [1, 18]: 10
- Plant response rating, Surinam Grass [2, 16]: 55
- Plant response rating, Surinam Grass [2, 17]: 70
- Plant response rating, Surinam Grass [2, 18]: 95
- Plant response rating, Blackgrass [3, 16]: 0
- Plant response rating, Blackgrass [3, 17]: 0
- Plant response rating, Blackgrass [3, 19]: 5
- Plant response rating, Blackgrass [3, 18]: 20
- Plant response rating, Cocklebur [4, 16]: 75
- Plant response rating, Cocklebur [4, 17]: 80
- Plant response rating, Cocklebur [4, 19]: 95
- Plant response rating, Cocklebur [4, 18]: 95
- Plant response rating, Corn (corn (Zea mays); [16]): 20
- Plant response rating, Corn (corn (Zea mays); [17]): 75
- Plant response rating, Corn (corn (Zea mays); [19]): 75
- Plant response rating, Corn (corn (Zea mays); [18]): 85
- Plant response rating, Bromegrass, Downy [5, 16]: 0
- Plant response rating, Bromegrass, Downy [5, 17]: 0
- Plant response rating, Bromegrass, Downy [5, 19]: 0
- Plant response rating, Bromegrass, Downy [5, 18]: 25
- Plant response rating, Foxtail, Giant [6, 16]: 75
- Plant response rating, Foxtail, Giant [6, 17]: 80
- Plant response rating, Foxtail, Giant [6, 19]: 90
- Plant response rating, Foxtail, Giant [6, 18]: 98
- Plant response rating, Morningglory [7, 16]: 100
- Plant response rating, Morningglory [7, 17]: 100
- Plant response rating, Morningglory [7, 19]: 100
- Plant response rating, Morningglory [7, 18]: 100
- Plant response rating, Pigweed [8, 16]: 80
- Plant response rating, Pigweed [8, 17]: 90
- Plant response rating, Pigweed [8, 18]: 100
- Plant response rating, Oat, Wild (wild oat (Avena fatua); [16]): 0
- Plant response rating, Oat, Wild (wild oat (Avena fatua); [17]): 0
- Plant response rating, Oat, Wild (wild oat (Avena fatua); [18]): 30
- Plant response rating, Canarygrass [9, 16]: 0
- Plant response rating, Canarygrass [9, 17]: 0
- Plant response rating, Canarygrass [9, 19]: 5
- Plant response rating, Canarygrass [9, 18]: 10
- Plant response rating, Chickweed [10, 16]: 65
- Plant response rating, Chickweed [10, 17]: 75
- Plant response rating, Chickweed [10, 19]: 80
- Plant response rating, Chickweed [10, 18]: 90
- Plant response rating, Windgrass [11, 16]: 0
- Plant response rating, Windgrass [11, 17]: 30
- Plant response rating, Windgrass [11, 18]: 50
